Data from patent publication US8772269B2, “Use of sulfonamide-including compounds in combination with angiogenesis inhibitors” (Eisai R&D Management Co., Ltd., priority 2004, dated 2014).
pIC50: −log10 of the molar value.

Assays:
[1] = system: human renal cancer cell line 786-O; test: Subcutaneous transplantation model of 786-O, E7820 and Compound A; assay type: in vivo, nude mice; settings: E7820 100 mg/kg twice a day, Compound A 100 mg/kg once a day, oral, 2 weeks; alone or combined
Protocol: Human renal cancer cell line 786-O (purchased from ATCC) was cultured in RPMI1640 (containing 10% FBS) to about 80% confluency in a 5% carbon dioxide incubator, and the cells were collected by trypsin-EDTA. The cells were diluted with 50% Matrigel-containing phosphate buffer to prepare a 1×10^8 cells/mL suspension, and the resulting cell suspension was subcutaneously transplanted in 0.1 mL volumes to nude mice at the side of their body. Starting from 7 days after the transplantation, E7820 (100 mg/kg, given twice a day for 2 weeks) and 4-(3-chloro-4-(cyclopropylaminocarbonyl)aminophenoxy)-7-methoxy-6-quinolinecarboxamide (100 mg/kg, given once a day for 2 weeks) were administered alone or in combination by the oral route. Tumor long and short axes were measured with a digimatic caliper (Mitsutoyo) and used to calculate both tumor volume and relative tumor volume according to the following equations. Tumor volume TV=tumor long axis(mm)×tumor short axis^2(mm^2)/2 Relative tumor volume RTV=tumor volume at the day of measurement/tumor volume at the first day of administration

HCT116-C9 = test: Cell growth inhibition assay (MTT method), cross resistance study; assay type: cell-based, human; settings: Example 5, HCT116-C9, 72 hours, read-out: antiproliferative activity IC50
Description: E7070-resistant sub-clonal cell lines were used to evaluate the antiproliferative activity of E7820, LY186641, LY295501, LY-ASAP and CQS. HCT116-C9 was a sub-clone separated from the human colon cancer cell line HCT116 (American Type Culture Collection, Manassas, Va., U.S.A.), while HCT116-C9-C1 and HCT116-C9-C4 were E7070-resistant sub-clonal cell lines obtained by culturing this HCT116-C9 in the presence of gradually increasing concentrations of E7070 (Molecular Cancer Therapeutics, 2002, 1, 275-286).
These 3 cell lines HCT116-C9, HCT116-C9-C1 and HCT116-C9-C4 were each seeded at 3000 cells/well in 96-well microplates (flat-bottomed) (50 μl/well). After 24 hours, a 3-fold dilution series of each compound was added (50 μl/well). After 72 hours, the cell growth inhibitory activity was evaluated by the MTT method (Mossmann T., J. Immunol. Methods, 1983, 65, 55-63). The least squares method was used to determine the 50% growth inhibitory concentration of each compound against each cancer cell line.
Exactly the same procedure as used in Example 4 was repeated to evaluate the antiproliferative activity of both LY573636 and E7070 using E7070-resistant sub-clonal cell lines.

[2] = system: human colon cancer cell line Colo320DM; test: Subcutaneous transplantation model of Colo320DM, E7070 and bevacizumab; assay type: in vivo, nude mice; settings: E7070 40 mg/kg/day i.v. Day 1-5, bevacizumab 25 mg/kg/day i.v. Days 1, 5, 8, 12; for Relative tumor volume (RTV) Mean ± SD: at Day 23; for Tx4 Mean ± SD: time for tumor to grow 4-fold of initial volume
Protocol: Human colon cancer cell line Colo320DM (purchased from ATCC) was cultured in RPMI1640 (containing 10% FBS) to about 80% confluency in a 5% carbon dioxide incubator, and the cells were collected by trypsin-EDTA. The cells were diluted with Hanks balanced solution to prepare a 5×10^7 cells/ml suspension, and the resulting cell suspension was subcutaneously transplanted in 0.1 mL volumes to nude mice at the side of their body.
After the transplantation, from the time point when the mean tumor volume reached 259 mm^3, E7070 (40 mg/kg/day) and bevacizumab (25 mg/kg/day) were administered alone or in combination.
E7070 alone was administered once a day for 5 days (Day 1 to Day 5) by the intravenous route. Bevacizumab alone was administered twice a week for 2 weeks (Days 1, 5, 8 and 12) by the intravenous route.
The co-treated group was administered with E7070 at Day 1 to Day 5 by the intravenous route and with bevacizumab at Days 1, 5, 8 and 12 by the intravenous route.
After starting the administration, tumor long and short axes were measured at a frequency of twice a week with a digimatic caliper (Mitsutoyo) and used to calculate the tumor volume according to the following equation. Tumor volume TV=tumor long axis(mm)×tumor short axis^2(mm^2)/2
For determination of the anti-tumor effect, the values of the following two parameters were used.
Tx4: Time (days) required for a tumor to grow 4-fold of the initial tumor volume
RTV: Relative tumor volume (RTV) at Day 23* • * RTV=tumor volume at Day 23/initial tumor volume at Day 1
Likewise, if the co-treated group produces a higher anti-tumor effect than the groups treated with either drug alone and has a significance level of 0.05<P<0.10, E7070 and bevacizumab are determined to have a synergistic tendency.

[3] = system: Human umbilical vein endothelial cells; test: VEGF-induced cell proliferation in vascular endothelial cell proliferation assay (in vitro); assay type: cell-based; settings: 3 days, absorbance relative to untreated cells
Protocol: Human umbilical vein endothelial cells were suspended in 2% FBS-containing Human endothelial-SFM Basal Growth Medium (Invitrogen Corporation) and adjusted to 1×10^4 cells/ml. The resulting cell suspension was dispensed in 100 μl aliquots into each well of 96-well plates and cultured at 37° C. in a 5% carbon dioxide incubator. On the next day, a solution containing E7820, a solution containing bevacizumab (Avastin®, purchased from Genentech), and a solution containing both E7820 and bevacizumab were respectively diluted with Human endothelial-SFM Basal Growth Medium containing 20 ng/ml VEGF (Genzyme Techne Corp.) and 2% FBS. The resulting diluted solutions were then added to the individual wells of the plates in a volume of 100 μl/well, followed by further culturing.
The combined effect was calculated according to the equation of Chou et al. (Adv. Enzyme Regul., 22, 27-55, 1984).

[4] = system: human colon cancer cell line Colo320DM; test: Subcutaneous transplantation model of Colo320DM, E7820 and bevacizumab; assay type: in vivo, nude mice; settings: E7820 200 mg/kg twice a day oral 3 weeks; bevacizumab 25 mg/kg twice a week intravenous 3 weeks; alone or combined
Protocol: Human colon cancer cell line Colo320DM (purchased from Dainippon Pharmaceutical Co., Ltd., Japan) was cultured at 37° C. in RPMI1640 (containing 10% FBS) to about 80% confluency in a 5% carbon dioxide incubator, and the cells were collected by trypsin-EDTA. The cells were diluted with 50% Matrigel-containing phosphate buffer to prepare a 5×10^7 cells/mL suspension, and the resulting cell suspension was subcutaneously transplanted in 0.1 mL volumes to nude mice at the side of their body. Starting from 7 days after the transplantation, E7820 (200 mg/kg, given twice a day for 3 weeks by the oral route) and bevacizumab (25 mg/kg, given twice a week for 3 weeks by the intravenous route) were administered. Tumor long and short axes were measured with a digimatic caliper (Mitsutoyo) and used to calculate both tumor volume and relative tumor volume according to the following equations. Tumor volume TV=tumor long axis(mm)×tumor short axis^2(mm^2)/2 Relative tumor volume RTV=tumor volume at the day of measurement/tumor volume at the first day of administration

[5] = compound concentration 0.0006 μg/μl
[6] = compound concentration 0.0012 μg/μl
[7] = compound concentration 0.0024 μg/μl
[8] = compound concentration 0.0049 μg/μl
[9] = compound concentration 0.0098 μg/μl
[10] = compound concentration 0.0195 μg/μl
[11] = compound concentration 0.0391 μg/μl
[12] = compound concentration 0.0781 μg/μl
[13] = compound concentration 0.1563 μg/μl
[14] = compound concentration 0.3125 μg/μl
[15] = compound concentration 0.6250 μg/μl
[16] = compound concentration 1.2500 μg/μl
[17] = compound concentration 2.5000 μg/μl
[18] = compound concentration 5.0000 μg/μl
[19] = compound concentration 10.0000 μg/μl
[20] = compound concentration 20.0000 μg/μl
[21] = compound concentration 40.0000 μg/μl

Molecule	Relative tumor volume at Day 22 Mean ± SD [1]	Relative tumor volume (RTV) Mean ± SD [2]	Tx4 Mean ± SD [2] [days]	% of control [3, 5]	% of control [3, 6]	% of control [3, 7]	% of control [3, 8]	% of control [3, 9]	% of control [3, 10]	% of control [3, 11]	% of control [3, 12]	% of control [3, 13]	% of control [3, 14]	% of control [3, 15]	% of control [3, 16]	% of control [3, 17]	% of control [3, 18]	% of control [3, 19]	% of control [3, 20]	% of control [3, 21]	other results
COc1cc2nccc(Oc3ccc(NC(=O)NC4CC4)c(Cl)c3)c2cc1C(N)=O [Compound A, 4-(3-chloro-4-(cyclopropylaminocarbonyl)aminophenoxy)-7-methoxy-6-quinolinecarboxamide]	0.59 ± 0.12	–	–	–	–	–	–	–	–	–	–	–	–	–	–	–	–	–	–	–	–
NS(=O)(=O)c1ccc(S(=O)(=O)Nc2cccc3c(Cl)c[nH]c23)cc1 [E7070, N-(3-chloro-1H-indol-7-yl)-4-sulfamoylbenzenesulfonamide]	–	2.70 ± 0.97	27.0 ± 3.4	–	–	–	–	–	–	–	–	–	–	–	–	–	–	–	–	–	pIC50 (HCT116-C9): 6.90
Cc1ccc(NS(=O)(=O)c2cccc(C#N)c2)c2[nH]cc(C#N)c12 [E7820, N-(3-cyano-4-methyl-1H-indol-7-yl)-3-cyanobenzenesulfonamide]	0.80 ± 0.13	–	–	98.9 % of control	102.2 % of control	104.8 % of control	99.4 % of control	97.2 % of control	88.9 % of control	87.9 % of control	72.3 % of control	60.5 % of control	56.2 % of control	57.2 % of control	47.8 % of control	41.4 % of control	37.4 % of control	34.4 % of control	33.1 % of control	12.5 % of control	–
Bevacizumab: human anti-VEGF (vascular endothelial growth factor) monoclonal antibody, purchased from Genentech under the name Avastin [reference compound]	–	2.84 ± 0.68	26.3 ± 2.8	96.0 % of control	94.2 % of control	89.5 % of control	88.3 % of control	80.8 % of control	78.8 % of control	71.0 % of control	68.5 % of control	64.2 % of control	62.0 % of control	60.1 % of control	56.1 % of control	51.8 % of control	54.8 % of control	53.2 % of control	50.4 % of control	51.7 % of control	Relative tumor volume at Day 22 Mean ± SD [4]: 5.1 ± 0.8
